From publication PMC7531004, “Discovery of gramicidin A analogues with altered activities by multidimensional screening of a one-bead-one-compound library” (Nature Communications, 2020)
“And” between values parts separate entries of the source, which are not always exact repeats. Equal entries are not always repeated. Where two headings read alike, the source gives them in different places. Where a SMILES comes first, the peptide text is derived from it. [ ]: non-standard residue; d: D form. The star is where a group is joined. NHCH2CH2OH = OCCN*; For = O=C*

Tests used:
[1] = test system: Streptococcus pyogenes SSI-9; experiment: Antibacterial activity assay of bead-derived peptides (three concentrations); type: cell-based; parameters: key: +++: inhibition by the 640-fold diluted peptide solution; ++: inhibition by the 160-fold diluted solution; +: inhibition by the 40-fold diluted solution; -: no inhibition; conditions: S. pyogenes
How it was run: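 First, each peptide stock was diluted 4- and 16-fold in DMSO; next, the three solutions were mixed with S. pyogenes SSI-9 suspension (2 × 10^5 CFU) in cation-adjusted Mueller Hinton Broth plus 5% laked horse blood; finally, plates stood 18 h at 37 °C before checking for grown-cell precipitation.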

[2] = test system: P388 mouse leukemia cell line; conditions: for IC50: 2 h
Procedure: (§1) Second, we examined the cytotoxicity toward mammalian cancer cells and hemolytic activity of 1. […] Hemolytic activity was evaluated by monitoring hemoglobin leakage from rabbit red blood cells as a consequence of membrane damage. The concentration of 1 required to cause 10% hemoglobin leakage (HC10) was 160 nM. Thus, the P388 cytotoxicity of 1 was 28-fold more sensitive than its hemolytic activity.
(§2) Mammalian cytotoxicity assay of purified peptides.
(§3) B22 was diluted with the growth medium with 2% DMSO to various concentrations as 5-fold serial dilution.
(§4) The collected cells were resuspended into
(§5) the growth medium at 2 × 10^4 cells/mL. Aliquots of the former medium (2% DMSO, 100 µL) containing
(§6) peptides and the latter medium containing P388 cells (100 µL) were mixed in a 96-well cell culture plate
(§7) (TR5003, TrueLine). The final concentration of P388 cells and DMSO were 1 × 10^4 cells/mL and 1%,
(§8) respectively. […]
(§9) were determined by WST -1 assay. A solution of 1-methoxy PMS and WST-1 in the growth medium
(§10) (1-methoxy PMS 0.70 mg/mL in Milli-Q/WST-1 3.6 mg/mL in pH 7.4 HEPES buffer = 1/9) was added to
(§11) each well of the plate (20.0 µL/well). The cells were incubated for 4 h under atmosphere of 5% CO 2 at
(§12) 37 °C. The absorbance of each well at 415 nm was measured using a Benchmark microplate reader
(§13) (Bio-Rad) or Thermo Scientifi c Multiskan GO (Thermo Fisher Scientific). The cytotoxicities of the purified
(§14) peptides were evaluated as IC 50 (nM) by means of three replicates. Sigmoidal curve fittings were performed

[3] = Procedure: as §1, §2, §3, §4, §5, §6, §7, §8, §9, §10, §11, §12, §13, §14
[4] = H+/Na+ transport assay of purified peptides; conditions: for Supplementary Figure 5 dose-response value (H+/Na+ transport): three replicate lines
Procedure: First, we evaluated the ion channel function of 1 using liposomes. To mimic a negatively charged Gram-positive bacterial membrane, the liposomes were prepared as large unilamellar vesicles (LUVs) comprising a 19:1 mixture of egg yolk phosphatidylcholine (EYPC) and egg yolk phosphatidylglycerol (EYPG)[57]. Pyranine, a pH-dependent fluorescent dye[58], was encapsulated in the LUVs and a pH gradient was applied across the membrane. H^+/Na^+ transport induced by a peptide was monitored by changes in the fluorescence intensity of pyranine.

[5] = IC50, mammalian cytotoxicity assay
[6] = read-out: EC50, H+/Na+ transport assay, 1st experiment
[7] = read-out: EC50, H+/Na+ transport assay, 2nd experiment
[8] = read-out: EC50, H+/Na+ transport assay, 3rd experiment
[9] = read-out: H+/Na+ transport activity EC50, EYPC/EYPG (19:1) LUVs
[10] = read-out: H+/Na+ transport activity/EC50, mean ± SD of three independent experiments

Row | Structure (SMILES) | antibacterial activity in the library screening [1] | IC50 [2] [nM] | IC50 [3, 5] [nM] | Supplementary Figure 5 dose-response value (H+/Na+ transport) ([4]; concentration 0.000512 nM) | Supplementary Figure 5 dose-response value (H+/Na+ transport) ([4]; concentration 0.00256 nM) | Supplementary Figure 5 dose-response value (H+/Na+ transport) ([4]; concentration 0.0128 nM) | Supplementary Figure 5 dose-response value (H+/Na+ transport) ([4]; concentration 0.064 nM) | Supplementary Figure 5 dose-response value (H+/Na+ transport) ([4]; concentration 0.32 nM) | Supplementary Figure 5 dose-response value (H+/Na+ transport) ([4]; concentration 1.6 nM) | Supplementary Figure 5 dose-response value (H+/Na+ transport) ([4]; concentration 8 nM) | Supplementary Figure 5 dose-response value (H+/Na+ transport) ([4]; concentration 40 nM) | Supplementary Figure 5 dose-response value (H+/Na+ transport) ([4]; concentration 200 nM) | Supplementary Figure 5 dose-response value (H+/Na+ transport) ([4]; concentration 1000 nM) | Supplementary Figure 5 dose-response value (H+/Na+ transport) ([4]; concentration 5000 nM) | EC50 [4, 6] [nM] | EC50 [4, 7] [nM] | EC50 [4, 8] [nM] | EC50 [4, 9] [nM] | EC50 [4, 10] [nM] | IC50 ([3]; Cytotoxicity IC50) [nM] | also measured
1 | CC(C)C[C@@H](NC(=O)[C@H](C)NC(=O)[C@H](NC(=O)[C@H](C)NC(=O)CNC(=O)[C@@H](NC=O)C(C)C)[C@H](C)O)C(=O)N[C@H](C(=O)N[C@H](CC(C)C)C(=O)N[C@@H](Cc1c[nH]c2ccccc12)C(=O)N[C@@H](C(=O)N[C@@H](Cc1c[nH]c2ccccc12)C(=O)N[C@H](CC(C)C)C(=O)N[C@@H](Cc1c[nH]c2ccccc12)C(=O)N[C@@H](C(=O)N[C@@H](Cc1c[nH]c2ccccc12)C(=O)NCCO)C(C)C)[C@H](C)O)C(C)C [B21] (For-VGA[dT]A[dL]V[dL]W[dT]W[dL]W[dV]W-NHCH2CH2OH) | Neither of these peptides exhibited growth inhibition activity | > 1000 | > 1000 | 2.384 and 1.443 and 2.029 | 3.95 and 1.0017 and 1.216 | 7.632 and 2.998 and 3.58 | 6.775 and 3.579 and 3.365 | 12.3823 and 9.367 and 13.3536 | 41.7064 and 40.5042 and 40.751 | 73.419 and 69.4178 and 73.375 | 75.8465 and 74.348 and 76.0982 | 78.878 and 79.2127 and 80.049 | 81.8535 and 78.0432 and 78.4426 | 82.5653 and 78.9179 and 76.8722 | 1.57 | 1.58 | 1.32 | 1.5 | 1.49 ± 0.15 | – | –
2 | CC(C)C[C@@H](NC(=O)[C@H](C)NC(=O)CNC(=O)[C@@H](NC=O)C(C)C)C(=O)N[C@@H](C)C(=O)N[C@@H](C(=O)N[C@H](C(=O)N[C@@H](C(=O)N[C@@H](Cc1c[nH]c2ccccc12)C(=O)N[C@H](CC(C)C)C(=O)N[C@@H](Cc1c[nH]c2ccccc12)C(=O)N[C@H](CC(C)C)C(=O)N[C@@H](Cc1c[nH]c2ccccc12)C(=O)N[C@@H](C(=O)N[C@@H](Cc1c[nH]c2ccccc12)C(=O)NCCO)C(C)C)[C@H](C)O)C(C)C)C(C)C [B12] (For-VGA[dL]A[dV]V[dT]W[dL]W[dL]W[dV]W-NHCH2CH2OH) | – | – | 340 | 2.818 and 0.0271 and -0.589 | 3.476 and 5.315 and 5.077 | 4.761 and 4.753 and 4.729 | 8.321 and 5.0339 and 7.369 | 16.8579 and 20.7391 and 16.934 | 35.2545 and 35.7349 and 38.3822 | 63.7974 and 60.2094 and 62.8038 | 71.4784 and 67.4712 and 69.6703 | 72.1513 and 73.1412 and 71.1696 | 74.8337 and 73.0658 and 70.6415 | 78.5724 and 78.4083 and 76.7501 | 1.66 | 0.838 | 2.98 | 1.8 | 1.83 ± 1.08 | 390 | weaker cytotoxicity than 1 [2]: 70 fold; IC50 ([3]; cytotoxicity against P388 cells/IC50): 387 ± 90.9 nM
3 | CNC(=O)C[C@@H](NC(=O)[C@@H](NC(=O)[C@@H](CC(C)C)NC(=O)[C@H](C)NC(=O)[C@@H](CC(C)C)NC(=O)[C@H](C)NC(=O)CNC(=O)[C@@H](NC=O)C(C)C)C(C)C)C(=O)N[C@@H](Cc1c[nH]c2ccccc12)C(=O)N[C@H](CC(C)C)C(=O)N[C@@H](Cc1c[nH]c2ccccc12)C(=O)N[C@H](CC(C)C)C(=O)N[C@@H](Cc1c[nH]c2ccccc12)C(=O)N[C@@H](C(=O)N[C@@H](Cc1c[nH]c2ccccc12)C(=O)NCCO)[C@H](C)O [B22] (For-VGA[dL]A[dL]V[dD](NHMe)W[dL]W[dL]W[dT]W-NHCH2CH2OH) | Neither of these peptides exhibited growth inhibition activity | > 1000 | > 1000 | 3.488 and 0.6119 and 2.737 | 2.255 and -0.3059 and 2.73 | 4.874 and 2.041 and 3.252 | 5.2777 and 5.073 and 4.243 | 9.536 and 13.0972 and 10.1736 | 28.0205 and 30.7244 and 31.4442 | 63.0425 and 64.573 and 66.6211 | 71.1735 and 74.4694 and 76.8331 | 80.49 and 75.6285 and 73.1074 | 79.8358 and 79.3757 and 78.5441 | 88.1657 and 79.255 and 76.0319 | 2.49 | 2.93 | 1.94 | 2.5 | 2.45 ± 0.5 | – | –
4 | CC(C)C[C@@H](NC(=O)[C@H](Cc1c[nH]c2ccccc12)NC(=O)[C@@H](CC(C)C)NC(=O)[C@H](Cc1c[nH]c2ccccc12)NC(=O)[C@@H](CC(C)C)NC(=O)[C@H](Cc1c[nH]c2ccccc12)NC(=O)[C@H](NC(=O)[C@@H](NC(=O)[C@H](NC(=O)[C@H](C)NC(=O)[C@H](NC(=O)[C@H](C)NC(=O)CNC(=O)[C@@H](NC=O)C(C)C)C(C)C)C(C)C)C(C)C)C(C)C)C(=O)N[C@@H](Cc1c[nH]c2ccccc12)C(=O)NCCO [A1] (For-VGA[dV]A[dV]V[dV]W[dL]W[dL]W[dL]W-NHCH2CH2OH) | +++ | – | 3.52 | 1.8002 and 1.763 and 1.206 | 3.307 and 4.634 and 1.407 | 5.867 and 6.44 and 5.481 | 6.841 and 9.002 and 6.572 | 16.8499 and 16.683 and 16.1323 | 35.8143 and 34.663 and 30.2235 | 59.1193 and 56.2604 and 57.9939 | 69.1281 and 68.6879 and 67.3822 | 71.9954 and 72.6939 and 69.0451 | 75.1932 and 74.1998 and 72.8534 | 74.4116 and 69.1356 and 72.7894 | 1.9 | 3.5 | 1.99 | 2.5 | 2.46 ± 0.9 | 4.1 | –
5 | CC(C)C[C@@H](NC(=O)[C@H](C)NC(=O)CNC(=O)[C@@H](NC=O)C(C)C)C(=O)N[C@@H](C)C(=O)N[C@@H](C(=O)N[C@H](C(=O)N[C@@H](C(=O)N[C@@H](Cc1c[nH]c2ccccc12)C(=O)N[C@H](CC(C)C)C(=O)N[C@@H](Cc1c[nH]c2ccccc12)C(=O)N[C@H](CC(C)C)C(=O)N[C@@H](Cc1c[nH]c2ccccc12)C(=O)N[C@H](CC(C)C)C(=O)N[C@@H](Cc1c[nH]c2ccccc12)C(=O)NCCO)[C@H](C)O)C(C)C)C(C)C [B13] (For-VGA[dL]A[dV]V[dT]W[dL]W[dL]W[dL]W-NHCH2CH2OH) | – | > 1000 | > 1000 | 3.017 and 1.952 and 2.608 | 3.102 and 3.766 and 3.197 | 2.802 and 3.448 and 5.087 | 7.573 and 8.7038 and 6.571 | 17.1662 and 17.5754 and 16.2478 | 34.5009 and 38.0687 and 36.068 | 62.5081 and 62.2715 and 60.6584 | 69.7421 and 65.8817 and 68.9295 | 70.9489 and 69.9169 and 66.3002 | 70.4102 and 68.4527 and 68.0392 | 77.0905 and 71.4732 and 77.0208 | 1.54 | 1.6 | 1.51 | 1.6 | 1.55 ± 0.04 | – | –
